Common to all, as to format: cell-based
One experiment concerns Actinomyces oris. In words: Bacterial growth of Actinomyces oris in the presence of polyols. The settings on record: aerobic conditions, FIG. 6. How it is done: (§1) The growth of these strains was then measured in the presence of isosorbide, maltitol, xylitol, allulose, sorbitol powder and dextrose monohydrate in an unrefreshed culture medium, incubated at 37° C. for 48 hours or 72 hours under aerobic or anaerobic conditions. The growths were measured by bacterial counting on solid medium. The results are expressed in Log 10 (CFU/ml). The culture media used are the Bacto Brain Heart Infusion (ref. 237500-BD (BHI)) and Difco™ Brain Heart Infusion Agar (ref. 241830-BD (BHIa)) culture media.

Experiment [1] concerns Streptococcus mutans. In words: Bacterial growth and biofilm of Streptococcus mutans strain from a decayed tooth, in the presence of polyols. The settings on record: FIG. 2. The method, then: The growth of these strains was then measured in the presence of isosorbide, maltitol, xylitol, allulose, sorbitol powder and dextrose monohydrate in an unrefreshed culture medium, […] conditions. The growths were measured by bacterial counting on solid medium. The results are expressed in Log 10 (CFU/ml). The culture media used are the Bacto Brain Heart Infusion (ref. 237500-BD (BHI)) and Difco™ Brain Heart Infusion Agar (ref. 241830-BD (BHIa)) culture media.

A further experiment deals with oral bacterial strains. The experiment in a line: Growth of the oral bacterial strains overall (summary of all strains tested). How it is done:
as §1

The next experiment deals with Lactobacillus gasseri. In words: Bacterial growth of Lactobacillus gasseri in the presence of polyols. The settings on record: anaerobic conditions, FIG. 3. The method, then:
as §1

For experiment [2], the system named is Streptococcus mutans. The experiment in a line: Bacterial growth of Streptococcus mutans strain from a healthy tooth, in the presence of polyols, counting on solid medium. The note with it: aerobic conditions, FIG. 1. The method, then: as §1
In the next experiment the test system is Actinomyces naeslundii. The experiment in a line: Bacterial growth of Actinomyces naeslundii in the presence of polyols. The note with it: for bacterial population: FIG. 4 as printed. The method, then: as §1

Regarding `O=C(CO)C(O)C(O)C(O)CO` (stereo not shown) [allulose], the bacterial growth entry in the experiment on Actinomyces oris was “slowed relative to the other polyols tested”.
As to `O[C@@H]1CO[C@H]2[C@@H]1OC[C@@H]2O` [isosorbide, 1,4:3,6-dianhydrosorbitol], the bacterial growth entry in the experiment on Actinomyces oris is listed as “decreases greatly over time in the presence of isosorbide, then stabilizes after 24 hours”; with Streptococcus mutans [1] (anaerobic conditions), “varies little”; with Streptococcus mutans [1] (strain from a decayed tooth), “Very slowed growth”; with Lactobacillus gasseri (T=24 hours) it was “remains absent”; in the experiment with Streptococcus mutans [2] (T=24 hours), “remain absent”; in the experiment on Actinomyces naeslundii (aerobic conditions, FIG. 5), “remains low relative to the other polyols”. In addition, the biofilm formed result with Streptococcus mutans [1] (anaerobic conditions, after 96 hours of incubation) is on record as “biofilm formed in the absence of isosorbide is much more pronounced than in the presence of isosorbide”. Further, the “growth of the bacterial strains, all cases” value in the experiment on oral bacterial strains (all strains and conditions tested) is “very significant decrease”. Moreover, the “level of performance relative to xylitol or sorbitol” value in the experiment on oral bacterial strains (comparison with polyols of commercial toothpastes) is recorded as “even higher than that observed with xylitol or sorbitol”. In the experiment on Lactobacillus gasseri (beyond 24 hours), the “kind of effect, populations beyond 24 hours” value is “inhibitory effect”. Also, in the experiment with Streptococcus mutans [2], the “bacterial population after 24 hours” value is on record as “declines slightly”. The “kind of effect on the bacterial population” value with Streptococcus mutans [2] is “bacteriostatic effect”; in the experiment with Actinomyces naeslundii (anaerobic conditions), “bactericidal effect”. Further, the “bacterial population from T=40 hours” value in the experiment with Actinomyces naeslundii (aerobic conditions, from T=40 hours, FIG. 5) was “substantial decrease”. In addition, in the experiment on Actinomyces naeslundii (anaerobic conditions), the bacterial population entry is given as “falls constantly until it disappears completely”.
On to `OC[C@@H](O)[C@H](O)[C@@H](O)CO` [xylitol, reference compound], for which the bacterial growth result is “slowed relative to the other polyols tested” in the experiment on Actinomyces oris and “appears to further curb the bacterial growth than the other polyols tested” in the experiment with Actinomyces naeslundii (aerobic conditions, FIG. 5). In addition, the bacterial population entry in the experiment with Actinomyces naeslundii (anaerobic conditions) is reported as “remains stable”.

The record behind these values is patent US12226507B2, “Use of dianhydrohexitol in oral and dental care to reduce the development of bacterial strains” (ROQUETTE FRERES, priority 2017, dated 2025).
